In ChEMBL document CHEMBL4651402, “Screening of ~5500 FDA-approved drugs and clinical candidates for anti-SARS-CoV-2 activity” (2021):

Test system: SARS-CoV-2
Assay: microbe, parasite or virus in culture
Conditions: Severe acute respiratory syndrome coronavirus 2, Vero C1008, 48 h

Row | Compound | IC50 [µM] | IC50 (read-out: pIC50 (converted)) [µM]
1 | COc1cc2c(cc1OC)CC(=O)N(CCCN(C)C[C@H]1Cc3cc(OC)c(OC)cc31)CC2 [IVABRADINE] | > 20 | > 20
2 | COc1ccc(-c2c(C#N)c(C(=O)NN3CCCCC3)nn2-c2ccc(Cl)cc2Cl)cc1 [JHU-75528] | > 20 | > 20
3 | C[N+](C)(Cc1ccc(NC(=O)c2ccc(Cl)c(Cl)c2)cc1)C1CCOCC1 [JNJ-17166864 CATION] | > 20 | > 20
4 | NS(=O)(=O)NC[C@H]1COc2cc(Cl)ccc2O1 [JNJ-26489112] | > 20 | > 20
5 | Fc1ccc(CN2CCC(Nc3ccc(C(F)(F)F)nn3)CC2)cc1F [JNJ-37822681] | > 20 | > 20
6 | O=C(c1ccc(Oc2ccc(F)cc2)nc1)N1CCCN(C2CCC2)CC1 [JNJ-39220675] | > 20 | > 20
7 | CN(C)C(=O)CCn1nc(Nc2ccc3c(c2)OC(F)(F)O3)nc1-c1ccncc1 [JNJ-39393406] | > 20 | > 20
8 | CCCCn1ccc(N2CCC(c3ccccc3)CC2)c(Cl)c1=O [JNJ-40411813] | > 20 | > 20
9 | O=C(CNC(=O)c1cccc(C(F)(F)F)c1)NC1CN([C@H]2CC[C@@](O)(c3cncs3)CC2)C1 [JNJ-41443532] | > 20 | > 20
10 | O=C(Nc1cnccc1Cl)N1CCN(Cc2ccc3c(c2)OC(F)(F)O3)CC1 [JNJ-42165279] | > 20 | > 20
11 | COCC(=O)Nc1cc(COc2ccc(NC(=O)Nc3cc(C(C)(C)C)nn3-c3ccc(C)cc3)c3ccccc23)ccn1 [JNJ-49095397] | > 20 | > 20
12 | C[C@@H]1c2nnn(-c3ncc(F)cn3)c2CCN1C(=O)c1cccc(C(F)(F)F)c1Cl [JNJ-54175446] | > 20 | > 20
13 | CO[C@@H]1[C@@H](O[C@@H]2O[C@H](C)[C@@H](O[C@H]3C[C@@](C)(O)[C@@H](OC(=O)CC(C)C)[C@H](C)O3)[C@H](N(C)C)[C@H]2O)[C@@H](CC=O)C[C@@H](C)[C@@H](O)/C=C/C=C/C[C@@H](C)OC(=O)C[C@H]1OC(C)=O [JOSAMYCIN] | > 20 | > 20
14 | O=C1C=CC(=O)c2c(O)cccc21 [JUGLONE] | > 20 | > 20
15 | O=c1c(O)c(-c2ccc(O)cc2)oc2cc(O)cc(O)c12 [KAEMPFEROL] | > 20 | > 20
16 | C=C(C)[C@H]1CN[C@H](C(=O)O)[C@H]1CC(=O)O [KAINIC ACID] | > 20 | > 20
17 | NC[C@H]1O[C@H](O[C@H]2[C@H](O)[C@@H](O[C@H]3O[C@H](CO)[C@@H](O)[C@H](N)[C@H]3O)[C@H](N)C[C@@H]2N)[C@H](O)[C@@H](O)[C@@H]1O [KANAMYCIN] | > 20 | > 20
18 | CNC1(c2ccccc2Cl)CCCCC1=O (centres undefined) [KETAMINE] | > 20 | > 20
19 | O=C(c1ccc(F)cc1)C1CCN(CCn2c(=O)[nH]c3ccccc3c2=O)CC1 [KETANSERIN] | > 20 | > 20
20 | C[C@H]1[C@H]2C(=O)c3ccc(O)cc3[C@]1(C)CCN2CC1CC1 [KETAZOCINE] | > 20 | > 20
21 | CCC(=O)C1(c2cccc(O)c2)CCN(C)CC1 [KETOBEMIDONE] | > 20 | > 20
22 | CC(C(=O)O)c1cccc(C(=O)c2ccccc2)c1 (centres undefined) [KETOPROFEN] | > 20 | > 20
23 | O=C(c1ccccc1)c1ccc2n1CCC2C(=O)O (centres undefined) [KETOROLAC] | > 20 | > 20
24 | CN1CCC(=C2c3ccccc3CC(=O)c3sccc32)CC1 [KETOTIFEN] | > 20 | > 20

Row | Compound | IC50 [µM] | IC50 (read-out: pIC50 (converted)) [µM]
25 | COc1c2occc2c(OC)c2c(=O)cc(C)oc12 [KHELLIN] | > 20 | > 20
26 | OC[C@H]1O[C@@H](n2cnc3c(NCc4ccco4)ncnc32)[C@H](O)[C@@H]1O [KINETIN RIBOSIDE] | > 20 | > 20
27 | c1coc(CNc2ncnc3[nH]cnc23)c1 [KINETIN] | > 20 | > 20
28 | O=c1cc(CO)occ1O [KOJIC ACID] | > 20 | > 20
29 | CCCCCCCOC(=O)NC1=NC(=O)N([C@H]2C[C@H](O)[C@@H](CO)O2)CN1 [KP-1461] | > 20 | > 20
30 | O=C(c1ccc(/C=C/c2n[nH]c3ccccc23)cc1)N1CCNCC1 [KW-2449] | > 20 | > 20
31 | CCc1c(O)cc(O)c(C(=O)c2ccc(OCCN3CCOCC3)c(OC)c2)c1CC(=O)N(CCOC)CCOC [KW-2478 FREE BASE] | > 20 | > 20
32 | Nc1ccccc1C(=O)CC(N)C(=O)O (centres undefined) [KYNURENINE] | > 20 | > 20
33 | Cc1cccc(NC(=O)N[C@@H]2N=C(c3ccccc3)c3ccccc3N(C)C2=O)c1 [L-365260] | > 20 | > 20
34 | NC(=O)NCCC[C@H](N)C(=O)O [L-CITRULLINE] | > 20 | > 20
35 | C[C@H](O)C(=O)O [L-LACTIC ACID] | > 20 | > 20
36 | N[C@H](CO)Cc1ccccc1 [L-PHENYLALANINOL] | > 20 | > 20
37 | CC(CCc1ccccc1)NCC(O)c1ccc(O)c(C(N)=O)c1 (centres undefined) [LABETALOL] | > 20 | > 20
38 | OC[C@@H](O)[C@@H](O[C@@H]1O[C@H](CO)[C@H](O)[C@H](O)[C@H]1O)[C@H](O)[C@@H](O)CO [LACTITOL] | > 20 | > 20
39 | OC[C@H]1O[C@@H](O[C@@H]2[C@@H](CO)O[C@](O)(CO)[C@H]2O)[C@H](O)[C@@H](O)[C@H]1O [LACTULOSE] | > 20 | > 20
40 | O=C(C[S+]([O-])Cc1ccco1)NC/C=C\COc1cc(CN2CCCCC2)ccn1 (centres undefined) [LAFUTIDINE] | > 20 | > 20
41 | N=C(N)c1ccc(C(=O)N[C@@H](Cc2ccc(O)cc2)C(=O)N2CCC(OCC(=O)O)CC2)cc1 [LAMIFIBAN] | > 20 | > 20
42 | Nc1ccn([C@@H]2CS[C@H](CO)O2)c(=O)n1 [LAMIVUDINE] | > 50.1 | > 50.1
43 | Nc1nnc(-c2cccc(Cl)c2Cl)c(N)n1 [LAMOTRIGINE] | > 20 | > 20
44 | Cc1c(OCC(F)(F)F)ccnc1C[S+]([O-])c1nc2ccccc2[nH]1 (centres undefined) [LANSOPRAZOLE] | > 20 | > 20
45 | CC(C)=CCC1=C(O)C(=O)c2ccccc2C1=O [LAPACHOL] | > 20 | > 20
46 | COc1cccc([C@H]2O[C@H](CC(=O)N3CCC(CC(=O)O)CC3)C(=O)N(CC(C)(C)COC(C)=O)c3ccc(Cl)cc32)c1OC [LAPAQUISTAT ACETATE] | > 20 | > 20
47 | CS(=O)(=O)CCNCc1ccc(-c2ccc3ncnc(Nc4ccc(OCc5cccc(F)c5)c(Cl)c4)c3c2)o1 [LAPATINIB] | > 20 | > 20
48 | CCN(C(=O)c1c(O)c2c(Cl)cccc2n(C)c1=O)c1ccccc1 [LAQUINIMOD] | > 20 | > 20

Row | Compound | IC50 [µM] | IC50 (read-out: pIC50 (converted)) [µM]
49 | Oc1ccc2c(c1)CC[C@H](c1ccccc1)[C@@H]2c1ccc(OCCN2CCCC2)cc1 [LASOFOXIFENE] | > 20 | > 20
50 | CC(C)OC(=O)CCC/C=C\C[C@@H]1[C@@H](CC[C@@H](O)CCc2ccccc2)[C@H](O)C[C@@H]1O [LATANOPROST] | > 20 | > 20
51 | Cc1ccc2c(c1)c1c(n2CCc2ccc(C)nc2)CCN(C)C1 [LATREPIRDINE] | > 20 | > 20
52 | COc1ccc(CC2c3cc(OC)c(OC)cc3CCN2C)cc1OC (centres undefined) [LAUDANOSINE] | > 20 | > 20
53 | CCCCCCCCCCCCN1CCCCCC1=O [LAUROCAPRAM] | > 20 | > 20
54 | Cn1nc(CO)nc1NCCCOc1cccc(CN2CCCCC2)c1 [LAVOLTIDINE] | > 20 | > 20
55 | Cc1cc(OC(=O)c2c(C)cc(O)cc2O)cc(O)c1C(=O)O [LECANORIC ACID] | > 20 | > 20
56 | Cc1oncc1C(=O)Nc1ccc(C(F)(F)F)cc1 [LEFLUNOMIDE] | > 20 | > 20
57 | CCN(CC)CCOc1ccccc1-n1c(C)ccc1-c1ccccc1 [LEIOPYRROLE] | > 20 | > 20
58 | Nc1cccc2c1CN(C1CCC(=O)NC1=O)C2=O (centres undefined) [LENALIDOMIDE] | > 20 | > 20
59 | O=C(CCCN1CCC(C(=O)c2ccc(F)cc2)CC1)c1ccc(F)cc1 [LENPERONE] | > 20 | > 20
60 | COc1cc2nccc(Oc3ccc(NC(=O)NC4CC4)c(Cl)c3)c2cc1C(N)=O [LENVATINIB] | > 20 | > 20
61 | COC(=O)C1=C(C)NC(C)=C(C(=O)OC(C)(C)CN(C)CCC(c2ccccc2)c2ccccc2)C1c1cccc([N+](=O)[O-])c1 (centres undefined) [LERCANIDIPINE] | > 20 | > 20
62 | CC(C)N1CCN(c2ccc(Nc3ncc4cc5n(c4n3)C3(CCCCC3)CNC5=O)nc2)CC1 [LEROCICLIB] | > 20 | > 20
63 | CCc1nn(CCO)c(CC)c1Oc1cc(C#N)cc(C#N)c1 [LERSIVIRINE] | > 20 | > 20
64 | C[C@]12O[C@H](C[C@]1(O)CO)n1c3ccccc3c3c4c(c5c6ccccc6n2c5c31)CNC4=O [LESTAURTINIB] | > 20 | > 20
65 | N#CC(c1ccc(F)cc1)c1c(Cl)cc(-n2ncc(=O)[nH]c2=O)cc1Cl (centres undefined) [LETRAZURIL] | > 20 | > 20
66 | N#Cc1ccc(C(c2ccc(C#N)cc2)n2cncn2)cc1 [LETROZOLE] | > 20 | > 20
67 | CC(C)C[C@H](N)C(=O)O [LEUCINE] | > 20 | > 20
68 | Nc1nc(=O)c2c([nH]1)NCC(CNc1ccc(C(=O)N[C@@H](CCC(=O)O)C(=O)O)cc1)N2C=O (some centres undefined) [LEUCOVORIN] | > 20 | > 20
69 | C[C@@H](N)Cc1ccccc1 [LEVAMFETAMINE] | > 20 | > 20
70 | c1ccc([C@H]2CN3CCSC3=N2)cc1 [LEVAMISOLE] | > 20 | > 20
71 | CC1(C)Oc2ccc(C#N)cc2[C@@H](N2CCCC2=O)[C@@H]1O [LEVCROMAKALIM] | > 20 | > 20
72 | N[C@H]1CONC1=O [LEVCYCLOSERINE] | > 20 | > 20
